Tests used:
U87MG human glioma cells [1] = assay: Subcutaneous glioma xenograft; format: in vivo, BALB/c (nu/nu) mice
Procedure: (§1) Glioblastoma: In animal models of glioblastoma, U87MG human glioma cells were implanted subcutaneously or intracranially in BALB/c (nu/nu) mice and the animals were divided into different treatment groups. […] In this study the effects of cisplatin were also examined.

U87MG human glioma cells [2] = assay: Intracranial glioma xenograft; format: in vivo, BALB/c (nu/nu) mice
Procedure: as §1

A2780/CP cells = assay: CCK-8 cytotoxicity, A6 plus DDP; format: cell-based, human
Procedure: Study Conditions. Drugs: […] Drug exposure time: 1 hour; Cell line: […] Media: RPMI 1640 plus 10% FBS containing 1 mM penicillin/streptomycin; Cytotoxicity Assays: CCK-8 (Cell Counting Kit 8-Dojindo Molecular Technologies). Tissue culture plates containing 96-well plates were seeded with 4000 cells in 100 μl of media per well. The wells on rows A-[…] cells, while the wells on rows E-[…]/CP cells. […] After 1 h, increasing concentrations of DDP were added to triplicate wells in 100 μl medium. […] The cells were then allowed to grow for 96 h following which the plates were assayed for relative cell growth with the CCK-8 assay. CCK-8 assay. Five μl of CCK-8 stain was added to each well and the plate was incubated at 37° C. incubator for 4 h. The plate was read with a microplate reader at a wavelength of 450 nm. (See FIGS. 5A-5D and FIG. 6). The assay was performed using triplicate wells for each DDP concentration. The data in the tables below is the optical density in the well which is a function of the number of live cells remaining at the end of the 96 h growth period.

IGROV-1/CP cells = assay: CCK-8 cytotoxicity, A6 plus DDP; format: cell-based, human
Procedure: Study Conditions. Drugs: […] Drug exposure time: 1 hour; Cell line: IGROV-1 and its DDP-resistant subline IGROV-1/CP; Media: RPMI 1640 plus 10% FBS containing 1 mM penicillin/streptomycin; Cytotoxicity Assays: CCK-8 (Cell Counting Kit 8—Dojindo Molecular Technologies). Tissue culture plates containing 96-well plates were seeded with 4000 cells in 100 μl of media per well. The wells on rows A-D were seeded with IGROV-1 cells, while the wells on rows E-H were seeded with IGROV-1/CP cells. […] After 1 h, increasing concentrations of DDP were added to triplicate wells in […] medium. […] The cells were then allowed to grow for 96 h following which the plates were assayed for relative cell growth with the CCK-8 assay. CCK-8 assay. […] of CCK-8 stain was added to each well and the plate was incubated at 37° C. incubator for 4 h. The plate was read with a microplate reader at a wavelength of 450 nm. (See FIGS. 7A-7D and FIG. 8). The assay was performed using triplicate wells for each DDP concentration. The data in the tables below is the optical density in the well which is a function of the number of live cells remaining at the end of the 96 h growth period.

[3] = test system: HEY/C2 (DDP resistant) cells; assay: CCK-8 cytotoxicity of DDP/PTX with or without A6; format: cell-based; details: 72 hours
Procedure: The cells were plated in 96-well plates as described and incubated overnight. […] The CCK-8 assay described herein was performed to access cytotoxicity of DDP/PTX.

[4] = molecular target: T1, CD44 on B16-F10 melanoma cells (UniProt P15379 23-778); assay: cell-based or functional assay
T1 sequence (looked up): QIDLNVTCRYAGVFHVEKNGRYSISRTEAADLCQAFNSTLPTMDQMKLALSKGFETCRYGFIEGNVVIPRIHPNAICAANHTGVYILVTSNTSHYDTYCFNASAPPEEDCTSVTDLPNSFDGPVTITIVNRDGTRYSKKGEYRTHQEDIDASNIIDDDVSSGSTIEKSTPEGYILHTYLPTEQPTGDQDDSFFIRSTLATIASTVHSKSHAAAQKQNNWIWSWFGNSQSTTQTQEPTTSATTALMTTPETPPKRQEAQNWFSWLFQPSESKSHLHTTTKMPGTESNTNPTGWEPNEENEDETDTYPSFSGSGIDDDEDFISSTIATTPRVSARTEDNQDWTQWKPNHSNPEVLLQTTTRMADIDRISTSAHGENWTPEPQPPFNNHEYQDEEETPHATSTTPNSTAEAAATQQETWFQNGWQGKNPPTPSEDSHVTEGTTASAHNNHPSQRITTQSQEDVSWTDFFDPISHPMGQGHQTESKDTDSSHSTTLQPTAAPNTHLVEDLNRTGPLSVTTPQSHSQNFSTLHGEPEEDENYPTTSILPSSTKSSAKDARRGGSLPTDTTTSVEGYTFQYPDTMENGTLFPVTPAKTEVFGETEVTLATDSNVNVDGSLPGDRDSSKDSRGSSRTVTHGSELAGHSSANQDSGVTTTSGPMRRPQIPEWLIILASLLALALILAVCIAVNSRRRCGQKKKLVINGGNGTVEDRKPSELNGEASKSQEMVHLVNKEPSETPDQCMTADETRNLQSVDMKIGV

For `N.N.[Cl][Pt][Cl]` [cisplatin, reference compound], the “inhibition of subcutaneous tumor growth” value (U87MG human glioma cells [1]) was 53%, the “inhibition of tumor growth” value (U87MG human glioma cells [2]) was 82% and the “resistance of the cells to DDP” value (A2780/CP cells) was “not very resistant”. The “resistance of the cells to DDP” value (IGROV-1/CP cells) was “appeared not to be resistant” and the “IC50 in HEY/C2 cells compared to HEY cells” value [3] was “about 7 fold”.

`CC(=O)O[C@H]1C(=O)[C@@]2(C)[C@H]([C@H](OC(=O)c3ccccc3)[C@]3(O)C[C@H](OC(=O)[C@H](O)[C@@H](NC(=O)c4ccccc4)c4ccccc4)C(C)=C1C3(C)C)[C@]1(OC(C)=O)CO[C@@H]1C[C@@H]2O` [paclitaxel, reference compound] was tested, and the “resistance of HEY/C2 cells compared to HEY cells” value [3] was “resisted to paclitaxel”.

B1: A6 peptide (Ac-KPSSPPEE-NH2) (peptide)
peptide: Ac-KPSSPPEE-NH2
With B1 the “IC50 for A6 inhibition of chemotaxis in B16-F10 cells” value [4] was 29 nM.
